Measurements: patent US20250082598A1, “Melafenoxate, 2-(1-adamantylamino)ethyl 2-(4-chlorophenoxy)acetate and derivatives thereof for treating circadian rhythm sleep disorders with neurodegenerative diseases such as Alzheimer's disease” (NLS Pharmaceutics AG, priority 2021, published 2025)

Assays:
[1] = biological target: T1, NK2 (h) (Homo sapiens, UniProt P21452); test: Radioligand binding, NK2 (h); settings: 10^−5 M; agonist radioligand
T1 construct: CEREP (Eurofins, France)
T1 sequence (P21452 1-398): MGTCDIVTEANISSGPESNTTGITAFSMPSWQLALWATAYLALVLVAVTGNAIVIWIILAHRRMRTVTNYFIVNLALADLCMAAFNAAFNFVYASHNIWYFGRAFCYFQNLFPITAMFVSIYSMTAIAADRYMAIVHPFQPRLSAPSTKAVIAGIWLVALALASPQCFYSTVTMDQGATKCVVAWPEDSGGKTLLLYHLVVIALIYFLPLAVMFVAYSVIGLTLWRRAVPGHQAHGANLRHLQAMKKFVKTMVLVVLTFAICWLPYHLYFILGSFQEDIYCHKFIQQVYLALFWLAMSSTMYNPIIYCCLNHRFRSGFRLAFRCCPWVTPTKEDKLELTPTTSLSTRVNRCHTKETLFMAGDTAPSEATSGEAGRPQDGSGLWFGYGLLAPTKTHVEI
Protocol: (§1) Melafenoxate was tested at 10^−5 M, calculated as a % inhibition of control specific binding of a radioactively labeled ligand specific for each target.
(§2) This binding profile panel was broadly defined with roughly an equal number of selective, central and peripheral therapeutically relevant targets, including native animal tissues, radioligands and specific enzymes involved in cell cycle regulation in accordance with Eurofins Standard Operating Procedure.
(§3) For radioligand binding experiments, the half maximal inhibitory concentration (IC50) and the half maximal effective concentration (EC50) values were determined (via computer software) by nonlinear regression analysis of the competition curves using Hill equation curve fitting. The inhibition constants (Ki) were calculated using the Cheng-Prusoff equation (Ki=IC50/(1+(L/KD)), where L is the concentration of radioligand in the assay, and KD is the affinity of the radioligand for the receptor.^49
(§4) The results are expressed as a % control specific binding ([measured specific binding/control specific binding]×100) and as a % inhibition of control specific binding (100−[(measured specific binding/control specific binding)×100]) obtained in the presence of the test compounds. […]

[2] = biological target: T2, 5-HT1A (h) (Homo sapiens, UniProt P08908); test: Radioligand binding, 5-HT1A (h); settings: 10^−5 M; agonist radioligand
T2 construct: CEREP (Eurofins, France)
T2 sequence (P08908 1-422): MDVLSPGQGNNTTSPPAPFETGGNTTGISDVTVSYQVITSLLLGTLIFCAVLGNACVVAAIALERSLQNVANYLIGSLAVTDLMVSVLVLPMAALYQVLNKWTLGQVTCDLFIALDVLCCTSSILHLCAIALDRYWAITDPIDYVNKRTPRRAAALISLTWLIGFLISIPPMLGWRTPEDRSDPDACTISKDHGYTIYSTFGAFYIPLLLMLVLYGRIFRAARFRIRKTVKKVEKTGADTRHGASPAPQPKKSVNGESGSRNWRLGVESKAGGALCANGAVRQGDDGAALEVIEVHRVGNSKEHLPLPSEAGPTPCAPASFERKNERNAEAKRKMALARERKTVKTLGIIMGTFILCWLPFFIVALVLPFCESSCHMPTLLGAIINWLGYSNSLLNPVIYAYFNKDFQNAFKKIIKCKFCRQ
Protocol: as §1, §2, §3, §4

[3] = biological target: T3, MT1 (MLT1a) (h) (Homo sapiens, UniProt P48039); test: Radioligand binding, MT1 (MLT1a) (h); settings: 10^−5 M; agonist radioligand; % inhibition of control specific binding
T3 construct: CEREP (Eurofins, France)
T3 sequence (P48039 whole entry): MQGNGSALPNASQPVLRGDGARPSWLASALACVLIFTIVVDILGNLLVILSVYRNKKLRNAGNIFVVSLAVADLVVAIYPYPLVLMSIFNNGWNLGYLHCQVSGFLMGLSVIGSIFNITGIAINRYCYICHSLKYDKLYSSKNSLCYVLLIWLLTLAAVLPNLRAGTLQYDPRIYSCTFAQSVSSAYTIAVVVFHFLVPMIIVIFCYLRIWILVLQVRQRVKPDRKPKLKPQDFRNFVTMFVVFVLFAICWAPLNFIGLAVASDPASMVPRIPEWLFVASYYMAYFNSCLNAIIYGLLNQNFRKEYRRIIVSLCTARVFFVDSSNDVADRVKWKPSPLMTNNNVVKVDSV
Protocol: as §1, §2, §3, §4

[4] = biological target: T4, NET (h) (Homo sapiens, UniProt P23975); test: Radioligand binding, NET (h); settings: 10^−5 M; antagonist radioligand
T4 construct: Eurofins
T4 sequence (P23975 whole entry): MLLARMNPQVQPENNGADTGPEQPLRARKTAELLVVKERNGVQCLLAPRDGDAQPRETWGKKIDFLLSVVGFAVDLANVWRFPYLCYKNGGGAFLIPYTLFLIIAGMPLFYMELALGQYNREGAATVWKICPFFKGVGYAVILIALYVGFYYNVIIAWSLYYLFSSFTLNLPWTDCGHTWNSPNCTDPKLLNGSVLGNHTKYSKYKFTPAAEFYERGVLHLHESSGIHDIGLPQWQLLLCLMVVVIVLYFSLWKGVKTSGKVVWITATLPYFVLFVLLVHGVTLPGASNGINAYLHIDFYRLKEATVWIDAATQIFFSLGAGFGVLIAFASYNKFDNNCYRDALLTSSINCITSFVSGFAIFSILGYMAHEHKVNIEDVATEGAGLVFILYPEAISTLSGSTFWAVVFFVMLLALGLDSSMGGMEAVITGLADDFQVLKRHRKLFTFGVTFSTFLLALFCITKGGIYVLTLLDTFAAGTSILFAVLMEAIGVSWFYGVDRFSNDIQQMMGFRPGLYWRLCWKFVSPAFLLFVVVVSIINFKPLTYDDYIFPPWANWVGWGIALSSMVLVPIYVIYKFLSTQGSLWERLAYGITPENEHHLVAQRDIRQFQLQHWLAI
Protocol: as §1, §2, §3, §4

- inhibition at 10 µM [1]: 33.5%
- inhibition at 10 µM [2]: 10.4%
- inhibition at 10 µM [3]: 75.2%
- inhibition at 10 µM [4]: 16.5%
Compound: O=C(COc1ccc(Cl)cc1)OCCNC12CC3CC(CC(C3)C1)C2 [Melafenoxate, 2-(1-adamantylamino)ethyl 2-(4-chlorophenoxy)acetate]
